Consider 17 molecules from patent US20080207527A1, “Bicyclic Compounds Which Inhibit Beta-Secretase Activity and Methods of Use Thereof” (CoMentis, Inc., priority 2004, published 2008).

Assay [1] deals with memapsin 2 (Homo sapiens, UniProt P56817). The experiment in a line: Inhibition of memapsin 2 beta-secretase activity toward fluorogenic substrate FS-2. The format is biochemical. Conditions: pH 4, 37° C., 20 minutes pre-incubation, read-out: M2 Ki. The method, then:
Potency of compounds were determined by measurement of their inhibition of memapsin 2 activity toward a fluorescent substrate. […] Briefly, assays were performed at pH 4, 37° C., by pre-incubation of memapsin 2 enzyme with compound for 20 minutes. Activity measure was initiated by addition of a fluorogenic substrate FS-2 (Bachem Americas, Torrance, Calif.). Fluorescent signal increase over time was measured as a rate of hydrolysis of the peptide substrate.

The test system of assay [2] is Aβ production. The experiment in a line: Cellular Aβ IC50 determination (Aβ40 sandwich ELISA). The note with it: Cricetulus griseus, Chinese hamster ovary cells over-expressing human APP695 with London and Swedish mutations, 24 h. The format is cell-based. The method, then: The potency of compounds against memapsin 2 activity was determined in a cellular assay of Aβ production. […] Chinese hamster ovary cells that over-express human APP695 with the London and Swedish mutations were seeded in multi-well plates at 10% confluency. Compounds were dissolved in DMSO to concentrations near 1 mM, and diluted into culture media to a final concentration near 4 μM (final 0.4% DMSO). Compounds were diluted serially and applied to cells in multi-well plates 48 h after seeding. Incubation was continued in 5% CO2 at 37 degrees C. for 24 h. Aliquots were removed and assayed for Aβ40 content using a sandwich ELISA (BioSource International). Amount of Aβ40 over the range of concentration of compounds, relative to control incubations, were fit to a 4-parameter IC50 model.

Sequence of memapsin 2 (P56817 46-501): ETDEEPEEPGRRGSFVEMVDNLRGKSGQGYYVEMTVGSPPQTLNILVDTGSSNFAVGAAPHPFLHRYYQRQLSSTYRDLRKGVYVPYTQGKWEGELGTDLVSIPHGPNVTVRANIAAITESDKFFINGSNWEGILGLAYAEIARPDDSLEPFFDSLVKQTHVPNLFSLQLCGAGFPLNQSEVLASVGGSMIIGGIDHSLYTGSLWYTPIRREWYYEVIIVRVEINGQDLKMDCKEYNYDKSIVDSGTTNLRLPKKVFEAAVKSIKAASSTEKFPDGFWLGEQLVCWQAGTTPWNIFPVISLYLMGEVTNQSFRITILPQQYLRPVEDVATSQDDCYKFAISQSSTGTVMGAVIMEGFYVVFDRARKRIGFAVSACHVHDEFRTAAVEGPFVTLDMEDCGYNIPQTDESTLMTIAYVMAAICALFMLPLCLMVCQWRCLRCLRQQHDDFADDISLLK

`CC(C)CNC(=O)C(NC(=O)C(C)CC(O)C(CC(C)C)NC(=O)c1cc(OCC(O)CN=[N+]=[N-])cc(C(=O)NC(C)c2ccccc2)c1)C(C)C` (stereo not drawn) [5-(3-azido-2-hydroxypropoxy)-N1-(5-hydroxy-8-(1-(isobutylamino)-3-methyl-1-oxobutan-2-ylamino)-2,7-dimethyl-8-oxooctan-4-yl)-N3-(1-phenylethyl)isophthalamide]: the Ki – broadly, a dissociation constant, usually derived from enzyme kinetics or from competition with a known ligand – in assay [1] fell in the range of 405 to 2000 nM.

Turning to `CC(C)CC(NC(=O)c1cc(C(=O)NC(CO)c2ccccc2)cc(N(C)S(C)(=O)=O)c1)C(O)CC(C)C(=O)NC(C(=O)NC(C)C)C(C)C` (stereo not drawn) [N1-(2-hydroxy-1-phenylethyl)-N3-(5-hydroxy-8-(1-(isopropylamino)-3-methyl-1-oxobutan-2-ylamino)-2,7-dimethyl-8-oxooctan-4-yl)-5-(N-methylmethylsulfonamido)isophthalamide], the Ki in assay [1] lay within 405 to 2000 nM. In addition, in assay [2], the IC50 (as a rule, the concentration needed to halve the response being measured) was more than 20000 nM.

Consider `CC(C)CC(NC(=O)c1cc(C(=O)NC(C)c2ccccc2)cc(N(C)S(C)(=O)=O)c1)C(O)CC(C)C(=O)NC(C(=O)NCC1CN(C)C1)C(C)C` (stereo not drawn) [N1-(5-hydroxy-2,7-dimethyl-8-(3-methyl-1-((1-methylazetidin-3-yl)methylamino)-1-oxobutan-2-ylamino)-8-oxooctan-4-yl)-5-(N-methylmethylsulfonamido)-N3-(1-phenylethyl)isophthalamide], for which the Ki in assay [1] is less than 405 nM. In addition, the IC50 in assay [2] is less than 5000 nM.

For `CC(C)CC(NC(=O)c1cc(C(=O)NC(C)c2ccccc2)cc(N(C)S(C)(=O)=O)c1)C(O)CC(C)C(=O)NC(C(=O)NCC1CCN(C)CC1)C(C)C` (stereo not drawn) [N1-(5-hydroxy-2,7-dimethyl-8-(3-methyl-1-((1-methylpiperidin-4-yl)methylamino)-1-oxobutan-2-ylamino)-8-oxooctan-4-yl)-5-(N-methylmethylsulfonamido)-N3-(1-phenylethyl)isophthalamide], in assay [1], the inhibition constant Ki is less than 405 nM. Also, the IC50 in assay [2] was less than 5000 nM.

As to `CC(C)CNC(=O)C(NC(=O)C(C)CC(O)C(CC(C)C)NC(=O)c1cc(OCC2CNC(=O)O2)cc(C(=O)NC(C)c2ccccc2)c1)C(C)C` (stereo not drawn) [N1-(5-hydroxy-8-(1-(isobutylamino)-3-methyl-1-oxobutan-2-ylamino)-2,7-dimethyl-8-oxooctan-4-yl)-5-((2-oxooxazolidin-5-yl)methoxy)-N3-(1-phenylethyl)isophthalamide], in assay [1], the Ki was less than 405 nM.

For `CC(=O)N(C)c1cc(C(=O)NC(C)c2ccccc2)cc(C(=O)NC(CC(C)C)C(O)CC(C)C(=O)NC(C(=O)NCC(C)C)C(C)C)c1` (stereo not drawn) [N1-(5-hydroxy-8-(1-(isobutylamino)-3-methyl-1-oxobutan-2-ylamino)-2,7-dimethyl-8-oxooctan-4-yl)-5-(N-methylacetamido)-N3-(1-phenylethyl)isophthalamide], the Ki in assay [1] was less than 405 nM. For the same molecule, the IC50 in assay [2] fell in the range of 5000 to 10000 nM.

Consider `Cc1csc(CN(C(=O)c2cccc(C(=O)NC(CC(C)C)C(O)CC(C)C(=O)NC(C(=O)NCC(C)C)C(C)C)c2)C(C)C)n1` (stereo not drawn) [N1-(5-hydroxy-8-(1-(isobutylamino)-3-methyl-1-oxobutan-2-ylamino)-2,7-dimethyl-8-oxooctan-4-yl)-N3-isopropyl-N3-((4-methylthiazol-2-yl)methyl)isophthalamide], for which the Ki in assay [1] is less than 405 nM.

As for `Cc1nc(CN(C)C(=O)c2cccc(C(=O)NC(CC(C)C)C(O)CC(C)C(=O)NC(C(=O)NCC(C)C)C(C)C)c2)cs1` (stereo not drawn) [N1-(5-hydroxy-8-(1-(isobutylamino)-3-methyl-1-oxobutan-2-ylamino)-2,7-dimethyl-8-oxooctan-4-yl)-N3-methyl-N3-((2-methylthiazol-4-yl)methyl)isophthalamide], the Ki in assay [1] was less than 405 nM.

Molecule `CC(C)CC(NC(=O)c1cc(C(=O)NC(C)c2ccccc2)cc(N(C)S(C)(=O)=O)c1)C(O)CC(C)C(=O)NC(C(=O)NC(C)C)C(C)C` (stereo not drawn) [N1-(5-hydroxy-8-(1-(isopropylamino)-3-methyl-1-oxobutan-2-ylamino)-2,7-dimethyl-8-oxooctan-4-yl)-5-(N-methylmethylsulfonamido)-N3-(1-phenylethyl)isophthalamide] yielded an IC50 in assay [2] of less than 5000 nM.

`COc1cccc(CNC(=O)CNC(=O)C(C)CC(O)C(CC(C)C)NC(=O)c2cc(C(=O)NC(C)c3ccccc3)cc(N(C)S(C)(=O)=O)c2)c1` (stereo not drawn) [N1-(5-hydroxy-8-(2-(3-methoxybenzylamino)-2-oxoethylamino)-2,7-dimethyl-8-oxooctan-4-yl)-5-(N-methylmethylsulfonamido)-N3-(1-phenylethyl)isophthalamide]: the Ki in assay [1] was in the range of 405 to 2000 nM.

For the molecule `CCCN(CCC)C(=O)c1cccc(C(=O)NC(CC(C)C)C(O)CC(C)C(=O)NCC(C)C)c1` (stereo not drawn) [N1-(5-hydroxy-8-(isobutylamino)-2,7-dimethyl-8-oxooctan-4-yl)-N3,N3-dipropylisophthalamide], in assay [1], the Ki is 2000 to 5000 nM.

Consider `CCc1csc(CNC(=O)c2cc(C(=O)NC(CC(C)C)C(O)CC(C)C(=O)NC(C(=O)NCC(C)C)C(C)C)cc(N(C)S(C)(=O)=O)c2)n1` (stereo not drawn) [N1-((4-ethylthiazol-2-yl)methyl)-N3-(5-hydroxy-8-(1-(isobutylamino)-3-methyl-1-oxobutan-2-ylamino)-2,7-dimethyl-8-oxooctan-4-yl)-5-(N-methylmethylsulfonamido)isophthalamide], for which, in assay [1], the Ki is less than 405 nM.

Molecule `CC(C)CC(NC(=O)c1cc(C(=O)NCc2ccccc2)cc(N(C)S(C)(=O)=O)c1)C(O)CC(C)C(=O)NC(C(=O)NC(C)C)C(C)C` (stereo not drawn) [N1-benzyl-N3-(5-hydroxy-8-(1-(isopropylamino)-3-methyl-1-oxobutan-2-ylamino)-2,7-dimethyl-8-oxooctan-4-yl)-5-(N-methylmethylsulfonamido)isophthalamide] registered an IC50 in assay [2] of 5000 to 10000 nM.

For `CCCN(CCC)C(=O)c1cncc(C(=O)NC(CC(C)C)C(O)CC(C)C(=O)NC(C(=O)NC(C)C)C(C)C)c1` (stereo not drawn) [N3-(5-hydroxy-8-(1-(isopropylamino)-3-methyl-1-oxobutan-2-ylamino)-2,7-dimethyl-8-oxooctan-4-yl)-N5,N5-dipropylpyridine-3,5-dicarboxamide], the Ki in assay [1] is less than 405 nM.

Take `CCN(Cc1ccncc1)C(=O)c1cncc(C(=O)NC(CC(C)C)C(O)CC(C)C(=O)NC(C(=O)NCC(C)C)C(C)C)c1` (stereo not drawn) [N3-ethyl-N5-(5-hydroxy-8-(1-(isobutylamino)-3-methyl-1-oxobutan-2-ylamino)-2,7-dimethyl-8-oxooctan-4-yl)-N3-(pyridin-4-ylmethyl)pyridine-3,5-dicarboxamide]: in assay [1], the Ki was more than 5000 nM.

On to `CC(C)CC(NC(=O)c1cc(C(=O)NC(C)c2ccccc2)cc(N(C)S(C)(=O)=O)c1)C(O)CC(NC(=O)OCc1ccccc1)C(=O)NC(C(=O)NC(C)C)C(C)C` (stereo not drawn) [benzyl 4-hydroxy-1-(1-(isopropylamino)-3-methyl-1-oxobutan-2-ylamino)-7-methyl-5-(3-(N-methylmethylsulfonamido)-5-(1-phenylethylcarbamoyl)benzamido)-1-oxooctan-2-ylcarbamate], for which the Ki in assay [1] was in the range of 405 to 2000 nM.

With `CCCN(CCC)C(=O)c1cc(NC(=O)OC(C)(C)C)cc(C(=O)NC(CC(C)C)C(O)CC(OC)C(=O)NC(C(=O)NC(C)C)C(C)C)c1` (stereo not drawn) [tert-butyl 3-(dipropylcarbamoyl)-5-(5-hydroxy-8-(1-(isopropylamino)-3-methyl-1-oxobutan-2-ylamino)-7-methoxy-2-methyl-8-oxooctan-4-ylcarbamoyl)phenylcarbamate], in assay [1], the inhibitory constant (Ki) was more than 5000 nM.
